{
  "source": "ChEMBL document CHEMBL5728176",
  "about": "“Substituted pyrimidines for treating bacterial infections” (2020)",
  "assay": "nhibition Assay against Klebsiella pneumoniae LpxC: LpxC inhibition assays were performed using liquid chromatography with tandem mass spectrometry. Assays were performed, in duplicate, in opaque, 96-well microplates in a total assay volume of 50 μL. The incubation mixture contained: LpxC (0.2 nM Kpn), 0.8 μM UDP-3-O—[(R)-3-hydroxymyristoyl]-N-acetyl-glucosamine, 40 mM Bis-Tris/HCl buffer (pH 5.9), 5 mM sodium phosphate buffer (NaH2PO4/Na2HPO4, pH 7.0), 1 mM DTT, 0.1% (w/v) fatty-acid free BSA, 10% DMSO (v/v, with or without compound). The reactions were incubated at 22° C. for 60 minutes (with mild shaking), then terminated by the addition of 25 μL 0.25 N HCl. Samples were analyzed using a LC-MS system to measure native LpxC substrate and reaction product. IC50 analysis was done using GeneData Screener and a four parameter variable slope normalized to controls. Test compounds were prepared as 8-point dose-response curves (factor dilution 2) in triplicate, starting at 1 μM final concentration. Each assay plate included 6 wells used for the Z′ factor calculation, 3 as a positive control for the assay and 3 as a negative control. The robustness was calculated as the median Z′ factor for 5 plates. Chir-90, a well-known inhibitor of LpxC activity was used as inhibitor control standard.",
  "data": [
    {"smiles": "C[C@@H](O)[C@H](NC(=O)c1ccc(C#Cc2ccc(CN3CCOCC3)cc2)cc1)C(=O)NO", "values": [
      {"measurement": "IC50", "value": "< 1", "unit": "nM"}
    ]}
  ]
}
